Data published in US7425563B2, “4-(Substituted aryl)-5-hydroxyisoquinolinone derivative” (Kyorin Pharmaceutical Co., Ltd., priority 2002, dated 2008).
pIC50: −log10 of the molar value.

Molecular target: T1, PARP (Homo sapiens, UniProt P09874)
T1 construct: purchased Trevigen 4667-050-01
Experiment: Inhibitory experiment against PARP activity
Format: biochemical
Conditions: PARP (Trevigen), [14C]NAD, activated DNA, 25° C., 10 minutes; concentration decreasing enzyme activity to 50%
Experimental: After mixing well, the contents were warmed to 25° C. in a water bath. After 10 minutes, the reaction was stopped by adding 1 mL of ice-cold 20% trichloroacetic acid and the test tube was left on ice. The precipitates were collected on a glass fiber filter by suction filtration and washed 5 times with 5% trichloroacetic acid. The radioactivity on the filter was measured with liquid scintillation counter.

T1 sequence (P09874 whole entry): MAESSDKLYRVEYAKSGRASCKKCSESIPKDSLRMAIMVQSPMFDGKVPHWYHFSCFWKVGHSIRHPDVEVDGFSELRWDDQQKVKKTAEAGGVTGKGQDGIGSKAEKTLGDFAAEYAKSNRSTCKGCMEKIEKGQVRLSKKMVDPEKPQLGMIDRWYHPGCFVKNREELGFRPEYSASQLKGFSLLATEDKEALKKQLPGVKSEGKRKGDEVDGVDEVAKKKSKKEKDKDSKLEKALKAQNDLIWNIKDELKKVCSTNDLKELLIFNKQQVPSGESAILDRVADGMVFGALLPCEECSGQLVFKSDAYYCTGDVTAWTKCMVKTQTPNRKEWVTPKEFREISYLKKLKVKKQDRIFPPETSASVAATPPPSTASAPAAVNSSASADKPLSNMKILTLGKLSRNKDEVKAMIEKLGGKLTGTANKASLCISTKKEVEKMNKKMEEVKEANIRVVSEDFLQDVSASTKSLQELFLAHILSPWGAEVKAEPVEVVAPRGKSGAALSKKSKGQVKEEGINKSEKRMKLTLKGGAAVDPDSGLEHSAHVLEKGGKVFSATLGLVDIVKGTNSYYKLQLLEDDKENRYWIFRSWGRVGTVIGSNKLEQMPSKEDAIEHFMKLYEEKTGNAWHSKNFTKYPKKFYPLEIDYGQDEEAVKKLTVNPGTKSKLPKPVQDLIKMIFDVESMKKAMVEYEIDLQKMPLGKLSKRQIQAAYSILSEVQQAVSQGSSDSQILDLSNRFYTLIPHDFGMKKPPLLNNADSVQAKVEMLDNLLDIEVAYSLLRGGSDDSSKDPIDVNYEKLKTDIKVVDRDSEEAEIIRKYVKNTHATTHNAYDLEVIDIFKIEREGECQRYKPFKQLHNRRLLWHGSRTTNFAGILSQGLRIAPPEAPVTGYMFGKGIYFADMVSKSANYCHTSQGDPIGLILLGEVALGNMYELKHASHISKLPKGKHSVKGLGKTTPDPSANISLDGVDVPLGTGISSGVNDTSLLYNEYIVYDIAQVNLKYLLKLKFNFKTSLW

Point of comparison: `CN(CCc1ccccc1)Cc1ccc(-c2c[nH]c(=O)c3cccc(O)c23)cc1` [Example 19], pIC50 7.39. Against it:
- CN(CCCc1ccccc1)Cc1ccc(-c2c[nH]c(=O)c3cccc(O)c23)cc1 [Example 21] — within 0.2 log units, 7.33
- CN(Cc1ccc(-c2c[nH]c(=O)c3cccc(O)c23)cc1)CC1CCCCC1 [Example 23] — 0.49 log units lower, 6.90
- CN(Cc1ccccc1)Cc1ccc(-c2c[nH]c(=O)c3cccc(O)c23)cc1 [Example 12] — within 0.2 log units, 7.27
- O=c1[nH]cc(-c2ccc(CN3CCCC3)cc2)c2c(O)cccc12 [Example 32] — within 0.2 log units, 7.48
- O=c1[nH]cc(-c2ccc(CN3CC=C(c4ccccc4)CC3)cc2)c2c(O)cccc12 [Example 61, 1,2-Dihydro-5-hydroxy-1-oxo-4-[4-[(4-phenyl-1,2,3,6-tetrahydropyridine-1-yl)methyl]phenyl]isoquinoline] — 0.31 log units higher, 7.70
